In patent US12643881B2, “Bicyclic amine CDK12 inhibitors” (Incyte Corporation, priority 2021, dated 2026):

biological target: T1, CDK12 complexed with Cyclin K (Homo sapiens, UniProt Q9NYV4); assay: Alternative CDK Enzymatic Assays (HTRF, pre-incubation with compounds and 1 mM ATP), Example A2; format: biochemical; details: enzyme pre-incubated with compounds and 1 mM ATP for 60 minutes; reaction 120 minutes at 25° C.
T1 construct: GST (N)
Text: Example A2. Alternative CDK Enzymatic Assays
The following activity of the CDK enzymes in complex with their respective cyclins we assayed: CDK1 complexed with Cyclin B1; CDK2 complexed with Cyclin E1; CDK4 complexed with Cyclin D1; CDK6 complexed with Cyclin D1; CDK6 complexed with Cyclin D3; CDK9 complexed with Cyclin T1; CDK7 complexed with Cyclin H/MAT1; CDK2 complexed with Cyclin A2; CDK5 complexed with p35; CDK12 complexed with Cyclin K; CDK13 complexed with Cyclin K. These in vitro enzyme activity are assayed using homogeneous time-resolved energy transfer (HTRF), which measures phosphorylation of a peptide substrate. The LANCER Ultra kinase assay (PerkinElmer) uses a ULight™-labeled EIF4E-binding protein 1 (THR37/46) peptide (DYSTTPGGTLFSTTPGTRI (SEQ ID NO: 1)) substrate and a Europium-labeled anti-phospho-4E-BP1 antibody (CDK2, CDK1, CDK4, CDK6, CDK9, CDK12, CDK13) or ULight™-labeled Myelin Basic Protein peptide (VTPRTPPP (SEQ ID NO: 2)) substrate and a Europium-labeled anti-phospho-MBP antibody (CDK7). Each CDK enzyme activity assays utilized human CDK co-expressed as N-terminal GST-tagged protein with its full length cyclin partner using a baculovirus expression system.
Enzyme was pre-incubated with compounds and 1 mM ATP for 60 minutes (CDK 1, 2, 4, 6, 9, 7, 12, 13) prior to the addition of ATP and Ulight-peptide (1 mM and 50 nM final, respectively), in assay buffer containing 50 mM HEPES pH 7.5, 1 mM EGTA, 10 mM MgCl2, 2 mM DTT, 0.05 mg/mL BSA, and 0.01% Tween 20. The reaction was then incubated for 120 minutes at 25° C. incubator. The reactions were stopped by the addition of EDTA and Europium labeled antibody, for a final concentration of 15 mM and 0.5-1.5 nM, respectively. HTRF signals were read after 15-120 minutes. A ratio of fluorescence transferred to the labeled substrate (665 nm) relative to fluorescence of the Europium donor (620 nm) represents the extent of phosphorylation. Ratios for treated wells were normalized to DMSO only (100% activity) and no enzyme (0% activity) controls. Normalized data was analyzed using a three or four parameter dose response curve to determine IC50 for each compound and are shown in Table B. Control reference inhibitors were included on each plate.

T1 sequence (Q9NYV4 whole entry): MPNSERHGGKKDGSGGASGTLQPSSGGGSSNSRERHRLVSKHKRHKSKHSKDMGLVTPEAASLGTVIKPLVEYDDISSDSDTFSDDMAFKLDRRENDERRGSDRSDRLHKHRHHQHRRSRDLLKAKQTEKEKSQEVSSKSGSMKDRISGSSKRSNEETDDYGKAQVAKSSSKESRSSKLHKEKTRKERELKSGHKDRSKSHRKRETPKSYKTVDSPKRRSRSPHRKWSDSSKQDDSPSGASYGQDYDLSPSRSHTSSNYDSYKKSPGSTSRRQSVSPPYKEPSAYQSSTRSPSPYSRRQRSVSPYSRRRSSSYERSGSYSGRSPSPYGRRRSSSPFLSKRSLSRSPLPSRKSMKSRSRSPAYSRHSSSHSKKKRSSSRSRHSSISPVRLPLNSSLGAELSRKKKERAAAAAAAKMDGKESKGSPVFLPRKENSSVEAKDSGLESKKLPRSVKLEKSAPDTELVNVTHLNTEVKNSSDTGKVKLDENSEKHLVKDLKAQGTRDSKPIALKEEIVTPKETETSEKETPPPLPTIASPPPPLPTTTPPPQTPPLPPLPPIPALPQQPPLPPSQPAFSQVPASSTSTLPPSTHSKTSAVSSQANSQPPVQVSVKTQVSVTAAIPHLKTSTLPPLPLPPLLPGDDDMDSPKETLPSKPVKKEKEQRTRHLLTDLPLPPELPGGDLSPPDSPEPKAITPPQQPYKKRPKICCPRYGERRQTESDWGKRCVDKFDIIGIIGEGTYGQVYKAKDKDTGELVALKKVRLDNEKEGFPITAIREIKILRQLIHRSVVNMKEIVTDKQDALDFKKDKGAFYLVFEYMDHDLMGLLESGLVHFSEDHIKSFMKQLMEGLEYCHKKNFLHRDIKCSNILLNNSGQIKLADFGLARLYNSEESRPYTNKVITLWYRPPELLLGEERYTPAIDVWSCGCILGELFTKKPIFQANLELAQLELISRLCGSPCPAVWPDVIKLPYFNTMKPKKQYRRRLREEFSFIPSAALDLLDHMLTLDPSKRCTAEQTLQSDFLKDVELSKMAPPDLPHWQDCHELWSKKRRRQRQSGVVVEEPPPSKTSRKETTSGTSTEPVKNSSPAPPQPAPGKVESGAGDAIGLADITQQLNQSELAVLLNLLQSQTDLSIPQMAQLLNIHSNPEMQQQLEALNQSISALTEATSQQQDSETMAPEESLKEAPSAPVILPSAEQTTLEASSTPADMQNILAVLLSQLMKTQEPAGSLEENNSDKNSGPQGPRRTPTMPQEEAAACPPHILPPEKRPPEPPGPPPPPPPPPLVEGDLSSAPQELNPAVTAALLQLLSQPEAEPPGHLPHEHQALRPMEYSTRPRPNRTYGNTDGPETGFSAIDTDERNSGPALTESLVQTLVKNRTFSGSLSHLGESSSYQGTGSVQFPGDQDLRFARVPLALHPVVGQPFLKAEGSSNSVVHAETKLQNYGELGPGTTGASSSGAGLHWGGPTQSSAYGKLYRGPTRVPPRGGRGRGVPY
T1 sequence (O75909 whole entry partner): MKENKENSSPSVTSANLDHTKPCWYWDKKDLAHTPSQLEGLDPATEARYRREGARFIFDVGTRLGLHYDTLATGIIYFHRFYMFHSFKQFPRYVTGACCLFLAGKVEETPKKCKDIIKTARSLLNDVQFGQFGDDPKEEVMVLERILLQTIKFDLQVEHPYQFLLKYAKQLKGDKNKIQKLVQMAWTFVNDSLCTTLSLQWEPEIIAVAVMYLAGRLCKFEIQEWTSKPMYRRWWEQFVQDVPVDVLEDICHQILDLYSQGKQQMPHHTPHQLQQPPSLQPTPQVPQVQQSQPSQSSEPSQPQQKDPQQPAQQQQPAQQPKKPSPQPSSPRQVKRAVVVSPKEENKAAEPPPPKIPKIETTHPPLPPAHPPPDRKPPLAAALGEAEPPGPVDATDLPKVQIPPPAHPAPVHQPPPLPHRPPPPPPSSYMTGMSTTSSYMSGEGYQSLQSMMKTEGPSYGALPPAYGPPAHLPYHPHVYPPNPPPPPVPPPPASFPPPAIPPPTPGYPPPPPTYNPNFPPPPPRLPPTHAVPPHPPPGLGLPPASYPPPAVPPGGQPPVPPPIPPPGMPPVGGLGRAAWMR

IC50	SMILES
< 0.05 µM	C=CC(=O)Nc1cc2nc(N3CCC[C@@H](Nc4ncc(C(F)(F)F)cn4)C3)n(C)c2cc1C(C)C [Example 154, (R)—N-(6-Isopropyl-1-methyl-2-(3-((5-(trifluoromethyl)pyrimidin-2-yl)amino)piperidin-1-yl)-1H-benzo[d]imidazol-5-yl)acrylamide]
0.05 to 0.5 µM	C=CC(=O)N1CCCCC1c1ccc2c(c1)nc(N1C[C@H](O)C[C@@H](Nc3ncc(C(F)(F)F)cn3)C1)n2C (stereo partly drawn) [Example 87, 1-(2-(2-((3R,5R)-3-Hydroxy-5-((5-(trifluoromethyl)pyrimidin-2-yl)amino)piperidin-1-yl)-1-methyl-1H-benzo[d]imidazol-5-yl)piperidin-1-yl)prop-2-en-1-one]
0.05 to 0.5 µM	C=CC(=O)Nc1cc2nc(N3C[C@H](F)C[C@@H](Nc4ccc(C(F)(F)F)cn4)C3)n(C)c2cc1C [Example 159]
0.05 to 0.5 µM	C=CC(=O)Nc1cc2nc(N3C[C@H](F)C[C@@H](Nc4ncc(C(F)(F)F)cn4)C3)n(C)c2cc1C(=O)N1CCCC1 [Example 138, N-(2-((3R,5R)-3-Fluoro-5-((5-(trifluoromethyl)pyrimidin-2-yl)amino)piperidin-1-yl)-1-methyl-6-(pyrrolidine-1-carbonyl)-1H-benzo[d]imidazol-5-yl)acrylamide]
0.05 to 0.5 µM	C=CC(=O)N1[C@H](C)CN(c2nccn3c(N4C[C@H](F)C[C@@H](Nc5ncc(C(F)(F)F)cn5)C4)ncc23)C[C@@H]1C [Example 104, 1-((2S,6R)-4-(3-((3R,5R)-3-Fluoro-5-((5-(trifluoromethyl)pyrimidin-2-yl)amino)piperidin-1-yl)imidazo[1,5-a]pyrazin-8-yl)-2,6-dimethylpiperazin-1-yl)prop-2-en-1-one]
< 0.05 µM	C=CC(=O)Nc1cc2nc(N3CCC[C@@H](Nc4ncc(C(F)(F)F)cn4)C3)n(C)c2cc1CC [Example 153, (R)—N-(6-Ethyl-1-methyl-2-(3-((5-(trifluoromethyl)pyrimidin-2-yl)amino)piperidin-1-yl)-1H-benzo[d]imidazol-5-yl)acrylamide]
< 0.05 µM	C=CC(=O)Nc1ccc2c(c1)nc(N1CCC[C@@H](Nc3cc(OC)c(C#N)cn3)C1)n2C [Example 151, (R)—N-(2-(3-((5-Cyano-4-methoxypyridin-2-yl)amino)piperidin-1-yl)-1-methyl-1H-benzo[d]imidazol-5-yl)acrylamide]
< 0.05 µM	C=CC(=O)Nc1ccc2c(c1)nc(N1CCC(F)(F)[C@@H](Nc3ncc(C#N)cn3)C1)n2C [Example 127, (S)—N-(2-(3-((5-Cyanopyrimidin-2-yl)amino)-4,4-difluoropiperidin-1-yl)-1-methyl-1H-benzo[d]imidazol-5-yl)acrylamide]
0.05 to 0.5 µM	C=CC(=O)Nc1cc2nc(N3C[C@H](F)C[C@@H](Nc4ncc(C(F)(F)F)cn4)C3)n(C)c2cc1CC [Example 131, N-(6-Ethyl-2-((3R,5R)-3-fluoro-5-((5-(trifluoromethyl)pyrimidin-2-yl)amino)piperidin-1-yl)-1-methyl-1H-benzo[d]imidazol-5-yl)acrylamide]
< 0.05 µM	C=CC(=O)Nc1ccc2c(c1)nc(N1CCC[C@@H](Nc3ncc(C(F)(F)F)s3)C1)n2C [Example 130, (R)—N-(1-Methyl-2-(3-((5-(trifluoromethyl)thiazol-2-yl)amino)piperidin-1-yl)-1H-benzo[d]imidazol-5-yl)acrylamide]
> 0.5 µM	Cc1cc2c(cc1NC(=O)/C=C\CN(C)C)nc(N1C[C@H](F)C[C@@H](Nc3ncc(C(F)(F)F)cn3)C1)n2C [Example 119, (Z)-4-(Dimethylamino)-N-(2-((3R,5R)-3-fluoro-5-((5-(trifluoromethyl)pyrimidin-2-yl)amino)piperidin-1-yl)-1,6-dimethyl-1H-benzo[d]imidazol-5-yl)but-2-enamide]
0.05 to 0.5 µM	C=CC(=O)Nc1cc2nc(N3C[C@H](F)C[C@@H](Nc4ccc(C#N)cn4)C3)n(C)c2cc1C [Example 163, N-(2-((3R,5R)-3-((5-Cyanopyridin-2-yl)amino)-5-fluoropiperidin-1-yl)-1,6-dimethyl-1H-benzo[d]imidazol-5-yl)acrylamide]
0.05 to 0.5 µM	C=CC(=O)Nc1cc2nc(N3C[C@H](Nc4ncc(C(F)(F)F)cn4)C[C@@H](OC)C3)n(C)c2cc1C [Example 111, N-(2-((3R,5R)-3-Methoxy-5-((5-(trifluoromethyl)pyrimidin-2-yl)amino)piperidin-1-yl)-1,6-dimethyl-1H-benzo[d]imidazol-5-yl)acrylamide]
< 0.05 µM	Cc1cc2c(cc1NC(=O)C#CCO)nc(N1C[C@H](F)C[C@@H](Nc3ncc(C(F)(F)F)cn3)C1)n2C [Example 115, N-(2-((3R,5R)-3-Fluoro-5-((5-(trifluoromethyl)pyrimidin-2-yl)amino)piperidin-1-yl)-1,6-dimethyl-1H-benzo[d]imidazol-5-yl)-4-hydroxybut-2-ynamide]
< 0.05 µM	C=CC(=O)Nc1ccc2c(c1)nc(N1CCC[C@@H](Nc3ncc(C(F)(F)F)c(N4CCN(C)CC4)n3)C1)n2C [Example 152, (R)—N-(1-Methyl-2-(3-((4-(4-methylpiperazin-1-yl)-5-(trifluoromethyl)pyrimidin-2-yl)amino)piperidin-1-yl)-1H-benzo[d]imidazol-5-yl)acrylamide]
< 0.05 µM	C=CC(=O)N(c1ccc2c(c1)nc(N1CCC[C@@H](Nc3ncc(C(F)(F)F)cn3)C1)n2C)C1CCOC1 (stereo partly drawn) [Example 165, N-(1-Methyl-2-((R)-3-((5-(trifluoromethyl)pyrimidin-2-yl)amino)piperidin-1-yl)-1H-benzo[d]imidazol-5-yl)-N-(tetrahydrofuran-3-yl)acrylamide]
0.05 to 0.5 µM	CC#CC(=O)N1C[C@@H]2C[C@H]1CN2c1nccn2c(N3C[C@H](F)C[C@@H](Nc4ncc(C(F)(F)F)cn4)C3)ncc12 [Example 106, 1-((1S,4S)-5-(3-((3R,5R)-3-Fluoro-5-((5-(trifluoromethyl)pyrimidin-2-yl)amino)piperidin-1-yl)imidazo[1,5-a]pyrazin-8-yl)-2,5-diazabicyclo[2.2.1]heptan-2-yl)but-2-yn-1-one]
< 0.05 µM	C=CC(=O)Nc1cc2nc(N3C[C@H](F)C[C@@H](Nc4ncc(C(F)(F)F)cn4)C3)n(C)c2cc1Cl [Example 134, N-(6-Chloro-2-((3R,5R)-3-fluoro-5-((5-(trifluoromethyl)pyrimidin-2-yl)amino)piperidin-1-yl)-1-methyl-1H-benzo[d]imidazol-5-yl)acrylamide]
> 0.5 µM	Cc1cc2c(cc1NC(=O)/C=C/CN1CCCCC1)nc(N1C[C@H](F)C[C@@H](Nc3ncc(C(F)(F)F)cn3)C1)n2C [Example 118, (E)-N-(2-((3R,5R)-3-Fluoro-5-((5-(trifluoromethyl)pyrimidin-2-yl)amino)piperidin-1-yl)-1,6-dimethyl-1H-benzo[d]imidazol-5-yl)-4-(piperidin-1-yl)but-2-enamide]
> 0.5 µM	C=CC(=O)Nc1c(C)cc2c(nc(N3C[C@H](F)C[C@@H](Nc4ncc(C(F)(F)F)cn4)C3)n2C)c1C [Example 144, N-(2-((3R,5R)-3-Fluoro-5-((5-(trifluoromethyl)pyrimidin-2-yl)amino)piperidin-1-yl)-1,4,6-trimethyl-1H-benzo[d]imidazol-5-yl)acrylamide]
< 0.05 µM	C=CC(=O)Nc1cc2nc(N3C[C@H](F)C[C@@H](Nc4ncc(C#N)c(CC)n4)C3)n(C)c2cc1C [Example 161, N-(2-((3R,5R)-3-((5-Cyano-4-ethylpyrimidin-2-yl)amino)-5-fluoropiperidin-1-yl)-1,6-dimethyl-1H-benzo[d]imidazol-5-yl)acrylamide]
< 0.05 µM	C=CC(=O)Nc1ccc2c(c1)nc(N1CCC[C@@H](Nc3ncc(C#N)c(N4CC[C@@H](N(C)C)C4)n3)C1)n2C [Example 142, N-(2-((R)-3-((5-cyano-4-((R)-3-(dimethylamino)pyrrolidin-1-yl)pyrimidin-2-yl)amino)piperidin-1-yl)-1-methyl-1H-benzo[d]imidazol-5-yl)acrylamide]
< 0.05 µM	C=CC(=O)Nc1cc2nc(N3C[C@H](F)C[C@@H](Nc4ncc(C#N)c(NC)n4)C3)n(C)c2cc1C [Example 158, N-(2-((3R,5R)-3-((5-Cyano-4-(methylamino)pyrimidin-2-yl)amino)-5-fluoropiperidin-1-yl)-1,6-dimethyl-1H-benzo[d]imidazol-5-yl)acrylamide]
< 0.05 µM	C=CC(=O)Nc1cc2nc(N3C[C@H](F)C[C@@H](Nc4ncc(C(F)(F)F)cn4)C3)n(C)c2cc1COC [Example 133, N-(2-((3R,5R)-3-Fluoro-5-((5-(trifluoromethyl)pyrimidin-2-yl)amino)piperidin-1-yl)-6-(methoxymethyl)-1-methyl-1H-benzo[d]imidazol-5-yl)acrylamide]
